The values below come from ChEMBL document CHEMBL1781966, “Lead optimization of 4-imidazolylflavans: new promising aromatase inhibitors” (Eur J Med Chem, 2011).

This assay concerns the target T1, Aromatase (Homo sapiens, UniProt P11511).
T1 sequence (P11511 whole entry): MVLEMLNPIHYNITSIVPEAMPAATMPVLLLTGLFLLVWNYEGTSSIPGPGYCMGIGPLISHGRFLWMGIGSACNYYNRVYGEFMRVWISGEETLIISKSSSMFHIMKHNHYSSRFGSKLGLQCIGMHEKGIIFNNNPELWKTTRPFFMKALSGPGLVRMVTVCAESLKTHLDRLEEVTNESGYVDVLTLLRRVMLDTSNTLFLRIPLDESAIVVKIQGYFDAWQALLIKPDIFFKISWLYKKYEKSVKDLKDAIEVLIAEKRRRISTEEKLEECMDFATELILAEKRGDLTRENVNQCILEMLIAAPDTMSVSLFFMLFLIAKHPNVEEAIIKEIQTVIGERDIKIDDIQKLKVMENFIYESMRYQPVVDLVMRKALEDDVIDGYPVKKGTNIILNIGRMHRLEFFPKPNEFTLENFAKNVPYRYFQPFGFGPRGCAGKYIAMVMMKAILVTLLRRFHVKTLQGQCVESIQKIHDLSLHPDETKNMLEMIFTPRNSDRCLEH
As to the kind of experiment: Inhibition of aromatase in human placental microsomes assessed as inhibition of aromatization of [1,2,6,7-3H] androstenedione by flow scintillation analysis. Further details: species or system Placenta.

Broadly, the IC50 is the concentration that inhibits the measured activity by half.

On to `N#Cc1ccc(C2CC(n3ccnc3)c3ccc4ccccc4c3O2)cc1` (cis isomer), for which the concentration for half-maximal inhibition (IC50) was determined as 534 nM.

`Oc1ccc(C2CC(n3ccnc3)c3ccc4ccccc4c3O2)cc1` (mixture of isomers): the IC50 was determined as 32 nM.

`N#Cc1ccc(C2CC(n3ccnc3)c3ccc4ccccc4c3O2)cc1` (mixture of isomers): the concentration for half-maximal inhibition (IC50) came out at 78 nM.

With `N#Cc1ccc(C2CC(n3ccnc3)c3ccc4ccccc4c3O2)cc1` (stereo in doubt), the IC50 was 34 nM.

As to `c1ccc(C2CC(n3ccnc3)c3ccc4ccccc4c3O2)cc1` (trans isomer), the half-inhibitory concentration (IC50) is 36 nM.
